# Experimental data: patent US20220071941A1, “THERAPIES FOR SQUAMOUS CELL CARCINOMAS” (Kura Oncology, Inc., priority 2018, published 2022)
# Test system: squamous head and neck cancer with HRAS mutations
# Experiment: Phase II study of tipifarnib in subjects with HRAS mutant tumors (HNSCC cohort)
# Assay type: in vivo, human
# Description: A Phase II study was performed that investigated the antitumor activity, in terms of objective response rate, of tipifarnib in subjects with locally advanced, unresectable or metastatic, relapsed and/or refractory tumors that carry HRAS mutations and for whom there is no curative therapy available. Subjects were men and women over 18 years of age.
# Inclusion criteria of the study were as follows: histologically or cytologically confirmed diagnosis of thyroid cancer (cohort 1) or squamous head and neck cancer (cohort 2) for which there is no curative therapy available; tumor that carries a missense HRAS mutation; subject consents to provide at least 10 unstained tumor slides for retrospective testing of HRAS gene tumor status; subject has measurable disease according to RECIST v1.1 and has relapsed or is refractory to prior therapy; at least 2 weeks since the last systemic therapy or radiotherapy regimen prior to enrolment; ECOG PS 0 or 1; acceptable liver function; acceptable renal function; and acceptable hematologic status.
# Exclusion criteria of the study were as follows: prior treatment with an FTase inhibitor; history of relevant coronary heart disease or myocardial infarction within last 3 years, NYHA Grade III or greater congestive heart failure, cerebro-vascular attack within the prior year, or serious cardiac arrhythmia requiring medication except atrial fibrillation; known uncontrolled brain, leptomeningeal or epidural metastases (unless treated and well controlled for at least 4 weeks prior to Cycle 1 Day 1); controlled brain metastases that require continuous high dose corticosteroid use within 4 weeks of Day 1; non-tolerable>Grade 2 neuropathy or evidence of unstable neurological symptoms within 4 weeks first dose; major surgery, other than diagnostic surgery, within 4 weeks prior to first dose, without complete recovery; active, uncontrolled bacterial, viral, or fungal infections, requiring systemic therapy; or known infection with HIV, or an active infection with hepatitis B or hepatitis C.
# The study comprised 36 participants and subjects were enrolled into two nonrandomized cohorts as follows: Cohort 1 was comprised of patients with malignant thyroid tumors with HRAS mutations; Cohort 2 was comprised of patients with squamous head and neck cancer with HRAS mutations. Patients received tipifarnib at a starting dose of 600-900 mg orally twice daily on days 1-7 and 15-21 of 28-day cycles.
# The primary outcome measurement of the study was objective response rate. Additionally, progression-free survival, duration of response, and the number of subjects with adverse events and serious adverse events were also recorded as secondary outcome measures. Adverse events and serious adverse events were graded according to the NCI-CTCAE (Version 4.03).
# Upon meeting the primary objective (objective response rate), the study was amended to continue enrollment of HNSCC patients (Cohort 2) in addition to patients with other SCCs (Cohort 3). These patients had tumors carrying high HRASm variant allele frequency (VAF >35% or if baseline serum albumin is >3.5 g/dL)
# [1] = of the 15 HNSCC patients meeting HRASm VAF criteria
smiles,measurement,setting,value
Cn1cncc1[C@@](N)(c1ccc(Cl)cc1)c1ccc2c(c1)c(-c1cccc(Cl)c1)cc(=O)n2C [tipifarnib],overall response rate,"15 HNSCC patients meeting HRASm VAF criteria, starting dose 600-900 mg orally twice daily on days 1-7 and 15-21 of 28-day cycles",53%
same,"median progression-free survival (PFS), patients experiencing SD",95% CI 1.6 to 5.4 months,4.5 months
same,"median progression-free survival (PFS), patients experiencing a PR",95% CI 5.3 to 19.5 months,19 months
same,overall median progression-free survival (PFS),"N=15, 95% CI 4.5 to 19.5 months",5.4 months
same,patients with at least 1 treatment-emergent adverse event (TEAE),graded according to NCI-CTCAE Version 4.03,All patients
same,most frequently observed drug-related Grade >3 TEAEs,occurring in ≥10% patients,"blood and lymphatic system disorders, gastrointestinal disorders, and renal disorders"
same,"confirmed partial responses (PR), number of patients",[1],8
same,"stable disease (SD), number of patients",[1],5
